The target of the test is α7 nAChR subtype (Rattus norvegicus, UniProt Q05941). It is filed as binding. The following applies: read-out: KD of radioligand.

The source of these data is patent publication US6703502B2 (priority 1997, dated 2004).

α7 nAChR subtype, sequence (Q05941 23-502 limits assumed): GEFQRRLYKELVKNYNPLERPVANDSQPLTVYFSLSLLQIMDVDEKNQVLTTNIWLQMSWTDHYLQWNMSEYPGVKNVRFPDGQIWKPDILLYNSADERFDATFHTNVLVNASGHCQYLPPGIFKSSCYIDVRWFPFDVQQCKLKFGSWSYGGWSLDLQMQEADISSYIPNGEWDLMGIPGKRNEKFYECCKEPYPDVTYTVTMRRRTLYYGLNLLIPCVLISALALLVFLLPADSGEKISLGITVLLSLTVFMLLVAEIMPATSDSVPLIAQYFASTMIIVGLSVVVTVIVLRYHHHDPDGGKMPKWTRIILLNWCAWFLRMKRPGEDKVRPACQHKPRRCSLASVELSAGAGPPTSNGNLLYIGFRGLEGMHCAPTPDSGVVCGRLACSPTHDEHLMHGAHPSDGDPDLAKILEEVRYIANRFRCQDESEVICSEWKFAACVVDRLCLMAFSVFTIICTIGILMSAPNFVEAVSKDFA

Take [^125I]-α-Bungarotoxin [^125I-α-BTX]: the Kd was determined as 1.67 nM.
